The conditions of data set [1]: cited from earlier work.
Data set [2] can be described thus: solubilities of salts of idelalisib in buffers and selected media.
The mark [3] stands for this setting: water demin. (pH dep.), 15 min.
The mark [4] stands for this setting: water demin. (pH dep.), 60 min.

These results are taken from patent EP3031808B1, “SALT OF IDELALISIB” (ratiopharm GmbH, priority 2014, dated 2016).

Like-named read-outs stand apart in the source and are kept apart here.

In the case of `CC[C@H](Nc1ncnc2[nH]cnc12)c1nc2cccc(F)c2c(=O)n1-c1ccccc1` [Base, 5-fluoro-3-phenyl-2-[(1S)-1-(9H-purin-6-ylamino)propyl]quinazolin-4(3H)-one], the solubility in water entry is recorded as “soluble” in data set [1] (water at pH 1.2) and “practically insoluble” in data set [1] (water at pH 7). Also, the solubilities in data set [2] (0,01m HCl pH ∼2,2, 15 min.) is 0.947; in data set [2] (0,01m HCl pH ∼2,2, 60 min.) it was 1.051; in data set [2] (20mM NaOAc pH 4.5, 15 min.) it was 0.092; in data set [2] (20mM NaOAc pH 4.5, 60 min.), 0.100; in data set [2] (50mM KH2PO4 pH 6.8, 15 min.), 0.086; in data set [2] (50mM KH2PO4 pH 6.8, 60 min.), 0.088. For the same compound, the solubilities in data set [2] (0.1 % TPGS (FaSSIF), 15 min.) was found to be 0.141; in data set [2] (0.1 % TPGS (FaSSIF), 60 min.), 0.107; in data set [2] (2.0% TPGS (FeSSIF), 15 min.), 1.056; in data set [2] (2.0% TPGS (FeSSIF), 60 min.), 1.172; in data set [2] (setting [3]) it was 0.098; in data set [2] (setting [4]) it was 0.081.

Maleate: the solubilities in data set [2] (0,01m HCl pH ∼2,2, 15 min.) is recorded as 2.445; in data set [2] (0,01m HCl pH ∼2,2, 60 min.), 2.655; in data set [2] (20mM NaOAc pH 4.5, 15 min.), 0.411; in data set [2] (20mM NaOAc pH 4.5, 60 min.), 0.475; in data set [2] (50mM KH2PO4 pH 6.8, 15 min.), 0.355; in data set [2] (50mM KH2PO4 pH 6.8, 60 min.) it was 0.393. Besides, the solubilities in data set [2] (0.1 % TPGS (FaSSIF), 15 min.) is 0.662; in data set [2] (0.1 % TPGS (FaSSIF), 60 min.) it was 1.121; in data set [2] (2.0% TPGS (FeSSIF), 15 min.) it was 6.798; in data set [2] (2.0% TPGS (FeSSIF), 60 min.), 6.984; in data set [2] (setting [3]) it was 1.934; in data set [2] (setting [4]), 2.095. Further, the “solubility compared to the free base of idelalisib” value in data set [2] (general statement) was “increased”.
